# Data from US8236984B2, “Compound and use thereof in the treatment of amyloidosis” (Pentraxin Therapeutics Ltd., priority 2007, dated 2012).
# Entries after “also recorded” stand apart in the source; their conditions may differ.
# Legend:
# [1] = target: T1, transthyretin (Homo sapiens, UniProt P02766); assay: Isothermal titration calorimetry of transthyretin-ligand binding; settings: ITC, Tris-NaCl pH 8.0, 2% DMSO, 37° C.
# T1 construct: Native tetrameric transthyretin was purified from fractionated human plasma; from tissue; host or cells: human plasma
# Method: 3.3.3 Isothermal titration calorimetry (itc) of transthyretin-mds84 ligand binding: Thermodynamic parameters of transthyretin-mds84 ligand binding were measured directly by isothermal titration calorimetry (VP-ITC, MicroCal LLC, Milton Keynes, UK). An initial injection of 1 μl of mds84 at 0.348 mM was made into transthyretin at a final concentration of 0.029 mM tetramer, followed, at 240 sec intervals, by 35 successive 8 μl injections. The diluent was Tris-NaCl pH 8.0 with 2% (v/v) DMSO. The sample cell was stirred at 310 rpm and cell contents were maintained at 37° C. After correction for volume displacement and plotting against the molar ratio of injected ligand to transthyretin tetramer, integration of the raw thermogram (FIG. 5, upper graph) yielded a binding isotherm (FIG. 5, lower graph) that was best fitted (determined by χ^2 analysis) to a model with a single set of identical sites by non-linear least squares analysis in ORIGIN v7.0 (MicroCal LLC).
# [2] = target: L55P variant transthyretin (Homo sapiens, UniProt P02766, L75P); assay: Differential scanning calorimetry of transthyretin with ligand; format: binding; settings: five fold molar excess of ligand
# [3] = target: T2, V30M transthyretin (Homo sapiens, UniProt P02766, V50M); assay: Mass spectrometric analysis of ligand dissociation under increasing cone voltage; format: binding; settings: equimolar 4.4 μM with wild type, 2 fold excess of ligand
# T2 construct: made in house
# Description: 4.3. Mass spectrometric analysis of dissociation of 4ajm15 from wild type and amyloidogenic variant transthyretin. ESMS spectra were acquired under increasing cone voltage conditions to induce stepwise dissociation of the ligand from wild type transthyretin and amyloidogenic variants V30M and L55P transthyretin. As the cone voltage increases splitting becomes apparent in the tetramer peaks, corresponding to apo (protein alone) and holo (protein+ligand) transthyretin as ligand begins to dissociate.
# The onset of ligand dissociation from V30M transthyretin occurs at the same energy level but the peak height corresponding to apo V30M transthyretin is lower than that for wild type (FIG. 17). Since these two species have very similar amino acid sequences (and therefore similar charging during MS ionisation) they are able to act as internal standards for each other. Therefore a lower peak height for apo V30M compared to apo WT is indicative of a lower proportion of apo V30M than apo WT. At increasing energy levels apo V30M is consistently lower relative to apo WT and as ligand dissociation from WT is complete, a proportion of holo V30M is still present.
# V30M transthyretin and [^15N, ^13C] wild type transthyretin in a 2 fold excess of ligand. […]
# [4] = target: T1, transthyretin; assay: Stopped flow analysis of the kinetics of binding by transthyretin; settings: 2 μM protein, 10 μM ligand, PBS pH 7.4, 5% DMSO, 20° C.
# Method: 3.2.2 Stopped flow analysis of the kinetics of 4ajm15 binding by transthyretin. The kinetics of transthyretin binding to 4ajm15 were evaluated with a Bio-Logic SFM-300 stopped flow device coupled to a fluorescence detection system (Claix, France) using a cell path length of 1.5 mm. The excitation wavelength was 280 nm and emission was measured at wavelengths greater than 320 nm using a cut off filter. The experiments were performed at 20° C. in PBS pH 7.4 containing 5% DMSO with a final protein concentration of 2 μM in the presence of 10 μM 4ajm15. The kinetic traces fit well to a single-exponential function with a time constant of 2.17 s (±0.02 s). Transthyretin thus binds 4ajm15 very rapidly at physiological pH with the plateau of the quenching reaction being reached after only ˜11 sec.
# [5] = target: transthyretin Met30 (Homo sapiens, UniProt P02766); assay: Displacement of 125I-T4 from transthyretin in whole serum; format: binding; settings: read-out: IC50 for displacement of T4 from transthyretin Met30 in serum; whole serum of heterozygous subjects, mean
# Description: (§1) 3.2.3.2. Quantitative studies in serum. […] The immunoprecipitate was recovered by centrifugation, washed twice with 0.1 M Tris, 0.1 M NaCl, pH 8.0 and counted.
# [6] = target: transthyretin Ala60 (Homo sapiens, UniProt P02766); assay: as above; format: binding; settings: read-out: IC50 for displacement of T4 from transthyretin Ala60 in serum; whole serum of heterozygous subjects, mean
# Description: as §1
# [7] = target: T3, transthyretin Tyr77 (Homo sapiens, UniProt P02766, S97Y); assay: as above; format: binding; settings: whole serum of heterozygous subjects, mean
# T3 construct: The displacement of T4 from transthyretin in whole serum; from tissue; host or cells: whole serum of heterozygous carriers
# Description: as §1
# [8] = target: wild type transthyretin (Homo sapiens, UniProt P02766); assay: Mass spectrometric analysis of subunit exchange; format: biochemical; design: made in house; settings: 4.4 μM labelled proteins, 2-fold molar excess of ligand, room temperature and 4° C.
# Method: 4.2 Mass spectrometric analysis of subunit exchange. Recombinant wild type, L55P and V30M transthyretin variants were biosynthetically labelled with isotopes [^15N] and [^15N, ^13C] as previously described (Keetch C A et al, 2005). Immediately prior to analysis, proteins were buffer exchanged into 20 mM ammonium acetate, pH 7.0 using Micro Biospin columns (Bio-Rad, UK). The subunit composition of transthyretin was monitored as a function of time by incubating an equimolar solution (4.4 μM) of [^15N] and [^15N, ^13C] labelled proteins in the presence of 2-fold molar excess of 4ajm15 in DMSO or 2.5% DMSO alone as a control. Each experiment was carried out in triplicate at room temperature and at 4° C. as well, since it is known that subunit exchange is accelerated at low temperatures. Nanoflow ESMS was performed on a QToF2 instrument (Waters/Micromass UK, Ltd.) modified for high mass operation (Sobott et al, (2002)) and calibrated externally using caesium iodide (100 mg/ml). Each solution, 1.5 μl, was electrosprayed from gold coated borosilicate capillaries prepared in-house as described (Nettleton E J, et al, 1998). […]
SMILES,enthalpy (ΔH) [1] [kcal/mol],"Kd ([1]; 0.029 mM tetramer, read-out: dissociation constant (Kd)) [µM]",Tm of L55P variant transthyretin with the ligand [2] [°C],increase in Tm of L55P variant transthyretin [2] [°C],peak height of apo V30M transthyretin at onset of dissociation (spectrum β) [3] [%],time constant of binding (single-exponential fit) [4] [s],time to plateau of the quenching reaction [4] [s],IC50 [5] [µM],IC50 [6] [µM],IC50 [7] [µM],subunit exchange of wild type transthyretin [8]
"O=C(O)c1ccccc1Nc1cc(Cl)c(OCCCCCCCOc2c(Cl)cc(Nc3ccccc3C(=O)O)cc2Cl)c(Cl)c1 [mds84, 2,2′-(4,4′-(heptane-1,7-diylbis(oxy))bis(3,5-dichloro-4,1-phenylene))bis(azanediyl)dibenzoic acid]",-7.95,0.505,98.3,5.9,,,,,,,
"O=C(O)c1ccccc1Nc1cc(Cl)c(OCCCCCCCCCCCOc2c(Cl)cc(Nc3ccccc3C(=O)O)cc2Cl)c(Cl)c1 [4ajm15, 2,2′-(4,4′-(undecane-1,11-diylbis(oxy))bis(3,5-dichloro-4,1-phenylene))bis(azanediyl)dibenzoic acid]",,,,,~45,2.17,~11,61.6,26.5,26.2,prevents any subunit exchange; also recorded: almost complete absence of exchange after 7 days
